Among the data in US5986108A, “4-substitued-3-[1 or 2 amino acid residue]-azetidin-2-one derivatives useful as cysteine proteinase inhibitor” (Synphar Laboratories, Inc., priority 1997, dated 1999) are IC50 values, retold here.

As a reminder, the IC50 is the point on the concentration scale where inhibition reaches its midpoint.

One experiment has as its target Cathepsin B (Rattus norvegicus, UniProt P00787). As to the kind of experiment: In vitro assay of inhibition of Cathepsin B (N-CBZ-Phe-Arg-AMC substrate). In kind it is biochemical. The note with it: r rat CathB, pH5.1, 10 min preincubation at room temperature; read-out: IC50, Cathepsin B. Here is the method:
After 10 min of incubation at room temperature a 20 μl of 5 mM substrate (N-CBZ-Phe-Arg-AMC, dissolved in DMSO) was added to initiate reaction. Reading is followed up for 10 min at the Fluoroscan reader (excitation at 380 nm, emission at 460 nm).

Another experiment addresses Cathepsin L (Rattus norvegicus, UniProt P07154). In words: Assay of inhibition of Cathepsin L (N-CBZ-Phe-Arg-AMC substrate). In kind it is biochemical. The conditions noted are these: r rat CathL, pH5.0, 10 min preincubation at room temperature; read-out: IC50, Cathepsin L. Here is the method:
After 10 min of incubation at room temperature a 20 μl of 1 mM substrate (N-CBZ-Phe-Arg-AMC, dissolved in DMSO) was added to initiate reaction. Reading is followed up for 10 min at the Fluoroscan reader (excitation at 380 nm, emission at 460 nm).

Cathepsin B, sequence (P00787 80-339): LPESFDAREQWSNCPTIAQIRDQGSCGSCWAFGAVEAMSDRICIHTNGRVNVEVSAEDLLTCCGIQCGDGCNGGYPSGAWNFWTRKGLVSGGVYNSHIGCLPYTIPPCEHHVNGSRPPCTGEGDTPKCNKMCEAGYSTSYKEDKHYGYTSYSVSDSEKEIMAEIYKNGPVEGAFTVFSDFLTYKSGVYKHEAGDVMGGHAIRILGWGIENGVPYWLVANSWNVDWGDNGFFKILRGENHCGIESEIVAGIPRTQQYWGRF
Cathepsin L, sequence (P07154 114-334): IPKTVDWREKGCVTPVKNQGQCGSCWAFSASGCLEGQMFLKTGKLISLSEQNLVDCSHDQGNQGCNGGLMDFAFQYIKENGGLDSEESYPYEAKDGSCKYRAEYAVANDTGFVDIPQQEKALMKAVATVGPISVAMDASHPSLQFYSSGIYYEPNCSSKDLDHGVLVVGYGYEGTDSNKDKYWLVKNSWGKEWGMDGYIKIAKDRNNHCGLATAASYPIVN

`O=C(CCc1ccccc1)N[C@@H](Cc1ccccc1)C(=O)N[C@@H]1C(=O)N[C@H]1Oc1ccc(C[C@H](NC(=O)OCc2ccccc2)C(=O)OC(c2ccccc2)c2ccccc2)cc1` [Example 29A, (3S,4S)-3-{N-(3-phenylpropionoyl)-L-phenylalanyl}-amino-4-{4-(L-2-N-benzyloxycarbonylamino-2-diphenylmethoxycarbonyl-ethyl)-phenoxy}-azetidin-2-one]: the IC50 on Cathepsin B was found to be 0.59 µM; on Cathepsin L, 0.16 µM. The matching figures for `O=C(CCc1ccccc1)N[C@@H](Cc1ccccc1)C(=O)N[C@@H]1C(=O)N[C@H]1Oc1cccc(C(=O)O)c1` [Example 28, (3S,4S)-3-{N-(3-phenylpropionoyl)-L-phenylalanyl}-amino-4-(3-carboxyphenoxy)-azetidin-2-one]: 0.076 µM and 0.228 µM. The matching figures for `CC(=O)O[C@@H]1NC(=O)[C@H]1NC(=O)[C@H](Cc1ccccc1)NC(=O)CCc1cccnc1` [Example 14, (3S,4S)-3-{N-(3-pyrid-3-yl-propionoyl)-L-phenylalanyl}-amino-4-acetoxy-azetidin-2-one]: 24.5 µM and 1.29 µM. Consider `CC(=O)Oc1ccc(OCC(=O)N[C@@H](Cc2ccccc2)C(=O)N[C@@H]2C(=O)N[C@H]2OC(C)=O)cc1` [Example 15, (3S,4S)-3-[N-{2-(4-acetoxyphenoxy)-ethanoyl}-L-phenylalanyl]-amino-4-acetoxy-azetidin-2-one], for which the results for the IC50 on Cathepsin B and on Cathepsin L were 6.33 µM and 2.07 µM, respectively.

On to `O=C(CCc1ccccc1)N[C@@H](Cc1ccccc1)C(=O)N[C@@H]1C(=O)N[C@H]1Oc1ccccc1` [Example 26, (3S,4S)-3-{N-(3-phenylpropionoyl)-L-phenylalanyl}-amino-4-phenoxy-azetidin-2-one], for which the IC50 on Cathepsin B is 2.19 µM; on Cathepsin L it was 0.0556 µM. With `CC(=O)O[C@H]1[C@H](NC(=O)[C@H](Cc2ccccc2)NC(=O)OCc2ccccc2)C(=O)N1S(=O)(=O)O` [Example 32, (3S,4S)-3-(N-benzyloxycarbonyl-L-phenylalanyl)-amino-4-acetoxy-azetidin-2-one-1-sulfonic acid], the IC50 at Cathepsin B was determined as 0.368 µM; at Cathepsin L it was 0.026 µM. `O=C(N[C@@H](Cc1ccccc1)C(=O)N[C@@H]1C(=O)N[C@H]1Sc1ccccc1)OCc1ccccc1` [Example 20, (3R,4S)-3-(N-benzyloxycarbonyl-L-phenylalanyl)-amino-4-phenylthio-azetidin-2-one]: the IC50 at Cathepsin L turned out to be 0.000108 µM.

For `O=C(N[C@@H](Cc1ccccc1)C(=O)N[C@@H]1C(=O)N(S(=O)(=O)O)[C@H]1Sc1ccccc1)OCc1ccccc1` [Example 31, (3R,4S)-3-(N-benzyloxycarbonyl-L-phenylalanyl)-amino-4-phenylthio-azetidin-2-one-1-sulfonic acid], the figures for the IC50 on Cathepsin B and on Cathepsin L were 8.43 µM and 0.067 µM, respectively. In the case of `CC(=O)O[C@@H]1NC(=O)[C@H]1NC(=O)[C@H](Cc1ccccc1)NS(=O)(=O)c1ccc(C(C)(C)C)cc1` [Example 18], the figures for the IC50 on Cathepsin B and on Cathepsin L were 2.12 µM and 0.082 µM, respectively. The corresponding values for `CC(=O)O[C@@H]1NC(=O)[C@H]1NC(=O)[C@H](Cc1ccccc1)NC(=O)N1CCOCC1` [Example 12, (3S,4S)-3-{N-(morpholin-yl-carbonyl)-L-phenylalaninyl}-amino-4-acetoxy-azetidin-2-one] are 7.4 µM and 1.58 µM. The corresponding values for `CC(=O)O[C@@H]1NC(=O)[C@H]1NC(=O)[C@H](Cc1ccccc1)NC(=O)CCN1CCOCC1` [Example 13] are 39.2 µM and 2.31 µM. The matching figures for `O=C(N[C@@H](Cc1ccccc1)C(=O)N[C@@H]1C(=O)N[C@H]1S(=O)(=O)c1ccccc1)OCc1ccccc1` [Example 21, (3R,4S)-3-(N-benezyloxycarbonyl-phenylalanyl)-amino-4-phenylsulfonyl-azetidin-2-one]: 7.39 µM and 0.000126 µM. In the case of `CC(=O)O[C@@H]1NC(=O)[C@H]1NC(=O)[C@H](Cc1ccccc1)NS(=O)(=O)/C=C/c1ccccc1` [Example 11], the figures for the IC50 at Cathepsin B and at Cathepsin L were 1.66 µM and 1.84 µM, respectively.
